Assay results as given in PubChem BioAssay AID330 (DTP/NCI, 2004).
Where “and” joins values, the source holds several entries; their conditions need not be identical. Equal entries are not always repeated. Toxic doses and inconclusive results are not listed. How the source made its calls: active means survival T/C of 150% or more; inactive means T/C below 125% in these data.

Tested on: P388 leukemia ip, CD2F1 mice, survival T/C
Experiment: NCI In Vivo Anticancer Drug Screen. Data for tumor model P388 Leukemia (intraperitoneal) in CD2F1 (CDF1) mice
Conditions: endpoint: median survival time, higher = longer survival
Method in brief: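 Mice carrying the transplanted tumor received test compound or vehicle. Survival was recorded in each group, and the value is the treated-group measurement divided by that of the vehicle-treated control group.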

[1] = dose: 25.0 mg/kg/injection, schedule: Q01DX005 (ip), vehicle: saline with Tween-80
[2] = dose: 50.0 mg/kg/injection, schedule: Q01DX005 (ip), vehicle: saline with Tween-80
[3] = dose: 200.0 mg/kg/injection, schedule: Q01DX005 (ip), vehicle: saline with Tween-80
[4] = dose: 50.0 mg/kg/injection, schedule: Q01DX009 (ip), vehicle: saline with Tween-80
[5] = dose: 100.0 mg/kg/injection, schedule: Q01DX009 (ip), vehicle: saline with Tween-80
[6] = dose: 12.5 mg/kg/injection, schedule: Q01DX009 (ip), vehicle: saline with Tween-80
[7] = dose: 25.0 mg/kg/injection, schedule: Q01DX009 (ip), vehicle: saline with Tween-80

Measured: T/C

COC(=O)C1C(=O)C(NC(=O)CCCCl)C(c2ccccc2)C(C(=O)OC)C1=O (configuration not stated)
inactive: dose: 12.5 mg/kg/injection, schedule: Q01DX005 (ip), vehicle: saline with Tween-80 103 % of control | [1] 106 % of control | [2] 99 % of control | dose: 60.0 mg/kg/injection, schedule: Q01DX005 (ip), vehicle: saline with Tween-80 101 % of control | dose: 100.0 mg/kg/injection, schedule: Q01DX005 (ip), vehicle: saline with Tween-80 102 % of control | dose: 120.0 mg/kg/injection, schedule: Q01DX005 (ip), vehicle: saline with Tween-80 94 % of control | [3] 103 % of control | dose: 240.0 mg/kg/injection, schedule: Q01DX005 (ip), vehicle: saline with Tween-80 97 % of control

C[CH2][Ge]([CH2]C)[CH2]/C(C)=C(/C)[CH2][Ge]([CH2]C)[CH2]C
inactive: [4] 100 % of control | [5] 108 % of control

O=C(Nc1ccc(C2=NCCN2)c(O)c1)c1cccc(C(=O)Nc2ccc(C3=NCCN3)c(O)c2)c1
inactive: dose: 25.0 mg/kg/injection, schedule: Q01DX005 (ip), vehicle: Klucel (hydroxypropylcellulose) (HPC) 97 % of control | dose: 50.0 mg/kg/injection, schedule: Q01DX005 (ip), vehicle: Klucel (hydroxypropylcellulose) (HPC) 97 % of control | dose: 100.0 mg/kg/injection, schedule: Q01DX005 (ip), vehicle: Klucel (hydroxypropylcellulose) (HPC) 97 % of control | dose: 200.0 mg/kg/injection, schedule: Q01DX005 (ip), vehicle: Klucel (hydroxypropylcellulose) (HPC) 102 % of control

CC1CC=[N+]([O-])C1(C)C (configuration not stated)
inactive: [6] 95 % of control | [7] 102 % of control | [4] 102 % of control and 86 % of control

COC(=O)C1(C)CCCC2(C)c3cc(OC)ccc3C3(CC12)OCCS3 (configuration not stated)
inactive: dose: 2.5 mg/kg/injection, schedule: Q01DX009 (ip), vehicle: saline with Tween-80 100 % of control | dose: 5.0 mg/kg/injection, schedule: Q01DX009 (ip), vehicle: saline with Tween-80 98 % of control | dose: 10.0 mg/kg/injection, schedule: Q01DX009 (ip), vehicle: saline with Tween-80 92 % of control

CC1CN1P1(N2CC2C)=NP(N2CC2C)(N2CC2C)=NP(N2CC2C)(N2CC2C)=N1 (configuration not stated)
inactive: dose: 12.5 mg/kg/injection, schedule: Q04DX003 (ip), vehicle: saline 100 % of control | dose: 25.0 mg/kg/injection, schedule: Q04DX003 (ip), vehicle: saline 112 % of control | [5] 102 % of control | dose: 100.0 mg/kg/injection, schedule: Q01DX009 (ip), vehicle: saline 90 % of control
active: dose: 25.0 mg/kg/injection, schedule: Q01DX009 (ip), vehicle: saline 154 % of control | dose: 33.0 mg/kg/injection, schedule: Q01DX009 (ip), vehicle: saline with Tween-80 154 % of control | [4] 170 % of control and 193 % of control | dose: 50.0 mg/kg/injection, schedule: Q01DX009 (ip), vehicle: saline 172 % of control | dose: 66.0 mg/kg/injection, schedule: Q04DX003 (ip), vehicle: saline 154 % of control | dose: 75.0 mg/kg/injection, schedule: Q01DX009 (ip), vehicle: saline with Tween-80 218 % of control | dose: 100.0 mg/kg/injection, schedule: Q04DX003 (ip), vehicle: saline 181 % of control

CCCCCCCCCSc1ccc(C(=O)O)cc1
inactive: [5] 109 % of control | dose: 200.0 mg/kg/injection, schedule: Q01DX009 (ip), vehicle: saline with Tween-80 103 % of control | dose: 400.0 mg/kg/injection, schedule: Q01DX009 (ip), vehicle: saline with Tween-80 105 % of control

CC(C)(C)N1CC1CNC(=O)C(=O)NCC1CN1C(C)(C)C (configuration not stated)
active: dose: 3.12 mg/kg/injection, schedule: Q01DX009 (ip), vehicle: saline with Tween-80 165 % of control | dose: 6.25 mg/kg/injection, schedule: Q01DX009 (ip), vehicle: saline with Tween-80 194 % of control and 203 % of control | [6] 256 % of control and 277 % of control | [7] 177 % of control

Cc1c2ccccc2c(C)c2c1cc(C(=O)O)c1ccccc12
inactive: [1] 113 % of control | [2] 113 % of control and 116 % of control | [3] 124 % of control

Cc1c2cnccc2c(C)c2c1[nH]c1ccccc12
inactive: dose: 25.0 mg/kg/injection, schedule: Q04DX002 (ip), vehicle: Klucel (hydroxypropylcellulose) (HPC) 98 % of control | dose: 50.0 mg/kg/injection, schedule: Q04DX002 (ip), vehicle: Klucel (hydroxypropylcellulose) (HPC) 103 % of control | dose: 100.0 mg/kg/injection, schedule: Q04DX002 (ip), vehicle: Klucel (hydroxypropylcellulose) (HPC) 105 % of control | dose: 180.0 mg/kg/injection, schedule: Q04DX002 (ip), vehicle: Klucel (hydroxypropylcellulose) (HPC) 94 % of control | dose: 200.0 mg/kg/injection, schedule: Q04DX002 (ip), vehicle: Klucel (hydroxypropylcellulose) (HPC) 111 % of control | dose: 360.0 mg/kg/injection, schedule: Q04DX002 (ip), vehicle: Klucel (hydroxypropylcellulose) (HPC) 108 % of control
